Source: patent publication US8778919B2, “Cyclic anilino—pyridinotriazines” (Janssen Pharmaceutica NV, priority 2005, dated 2014)

Experiments:
[1] = biological target: GSK-3β (Homo sapiens, UniProt P49841); assay: GSK-3 kinase assay (C1), GSK-3β; type: biochemical; conditions: 1 μM ATP; for IC50: read-out: C1 Score β
Procedure, shortened: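 Radiometric SPA at room temperature in 25 mM Tris pH 7.4 with 10 mM MgCl2, 1 mM DTT, 5.7 ng/μl GSK-3β or 0.25 ng/μl GSK-3α, 5 μM biotinylated CREB peptide and 1 μM ATP plus ^33P-ATP. Stopped after 1 h; IC50 from dose-response versus no-compound control, reported as pIC50 score bands.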

[2] = biological target: cSRC (h) (Homo sapiens, UniProt P12931); assay: Kinase profiling C3.9 cSRC human; type: biochemical; conditions: test concentration of 10^−6 M
Procedure: (§1) The in vitro inhibition of a panel of kinases was assessed using either the glass-fiber filter technology as described by Davies, S. P. et al., Biochem J. (2000), 351; p. 95-105. In the glass-fiber filter technology the activity of the kinase of interest is measured using an appropriate substrate that is incubated with the aforementioned kinase protein in the presence of (^33P) radiolabeled ATP. (^33P) Phosporylation of the substrate is subsequently measured as radioactivity bound on a glassfiber-filter.
(§2) All kinases are pre-diluted to a 10× working concentration prior to addition into the assay. The composition of the dilution buffer for each kinase is detailed below.
(§3) All substrates are dissolved and diluted to working stocks in de-ionised water, apart from histone H1 that is stored in 10× working stock in 20 mM MOPS pH 7.4.
(§4) In a final reaction volume of 25 μl, cSRC (h) (5-10 mU) is incubated with 8 mM MOPS pH 7.0, 0.2 mM EDTA, 250 μM KVEKIGEGTYGVVYK (Cdc2 peptide), 10 mM MgAcetate and [γ-^33P-ATP] (specific activity approx. 500 cpm/pmol, concentration as required). The reaction is initiated by the addition of the MgATP mix. After incubation for 40 minutes at room temperature, the reaction is stopped by the addition of 5 μl of a 3% phosphoric acid solution.
10 μl of the reaction is then spotted onto a P30 filtermat and washed three times for 5 minutes in 75 mM phosphoric acid and once in methanol prior to drying and scintillation counting.

[3] = tested on: Chang cells; assay: GSK-3 cellular assay (C2): 14C-D-glucose incorporation into glycogen; type: cell-based; conditions: increase in D-glucose incorporation into glycogen, test concentration of 10^−6 M
Procedure: Test compounds were tested for their ability to increase the incorporation of ^14C-D-glucose into glycogen in living cells. To do this, Chang cells (360,000 cells/well) were cultured in 0.5 ml of MEM Rega 3 medium supplemented with 10% fetal calf serum, 1% L-glutamine and 2% sodium carbonate. After 3 days, cells were washed with 0.5 ml of phosphate-buffered saline and overlayed with 1 ml of serum- and glucose-free DMEM medium. Then, 2 μl of compound in DMSO and 50 μl substrate (3 mM glucose and 0.5 μCi ^14C-D-glucose were added and the cultures were incubated for 90 min. Cells were then extracted with 0.5 ml of 20% KOH for 60 min at 37° C. and the cell lysates were transferred to 10 ml tubes containing 300 μl of 1 mg/ml glycogen as […]. Following the addition of 2 ml ethanol, total glycogen was precipitated overnight at −20° C. and the precipitates were recovered by centrifugation. Precipitates were then resuspended in 1 ml of water and transferred to scintillation counter vials. and the amount of ^14C-D-glucose incorporation into glycogen was measured by scintillation counting. Scores for the compounds according to the invention, were obtained at a test concentration of 10^−6 M. Score 1=10-30% increase, Score 2=30-60% increase, Score 3=60-80% increase and Score 4=>80% increase in D-glucose incorporation.

[4] = biological target: Yes (h) (Homo sapiens, UniProt P07947); assay: Kinase profiling C3.10 Yes human; type: biochemical; conditions: test concentration of 10^−6 M
Procedure: as §1, §2, §3
as §4, with “Yes” for “cSRC”, “0.1 mg/ml poly(Glu, Tyr) 4:1,” for “250 μM KVEKIGEGTYGVVYK (Cdc2 peptide),”, “solution. 10 μl of the reaction is then spotted onto a Filtermat A and washed three times for 5 minutes in 75 mM phosphoric acid and once in methanol prior to drying and scintillation counting.” for “solution.”

[5] = biological target: CDK2/cyclinE (h) (Homo sapiens, UniProt P24941); assay: Kinase profiling C3.4 CDK2/cyclinE human; type: biochemical; conditions: test concentration of 10^−6 M
Procedure, shortened: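 Radiometric filter-binding assay: 5-10 mU enzyme with 0.1 mg/ml histone H1 in 8 mM MOPS pH 7.0, 0.2 mM EDTA, 10 mM Mg acetate and [γ-33P]ATP. Incubated 40 min at room temperature, stopped with phosphoric acid. Substrate-bound 33P counted on P30 filtermat.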

Sequence of Yes (h) (P07947 whole entry): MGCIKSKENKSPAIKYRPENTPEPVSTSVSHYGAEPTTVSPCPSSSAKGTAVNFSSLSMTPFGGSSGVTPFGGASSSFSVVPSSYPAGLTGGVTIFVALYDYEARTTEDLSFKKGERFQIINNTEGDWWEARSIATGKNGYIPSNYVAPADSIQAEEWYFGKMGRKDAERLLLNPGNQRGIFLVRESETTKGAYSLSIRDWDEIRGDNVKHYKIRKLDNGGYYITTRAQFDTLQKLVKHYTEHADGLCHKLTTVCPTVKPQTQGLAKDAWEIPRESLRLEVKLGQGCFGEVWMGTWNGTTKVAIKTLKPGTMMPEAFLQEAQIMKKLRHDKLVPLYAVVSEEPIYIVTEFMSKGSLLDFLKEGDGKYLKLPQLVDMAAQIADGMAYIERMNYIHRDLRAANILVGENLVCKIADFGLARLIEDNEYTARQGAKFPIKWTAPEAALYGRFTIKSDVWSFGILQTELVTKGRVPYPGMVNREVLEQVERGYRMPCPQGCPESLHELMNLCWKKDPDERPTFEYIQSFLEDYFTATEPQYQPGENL
Sequence of cSRC (h) (P12931 whole entry): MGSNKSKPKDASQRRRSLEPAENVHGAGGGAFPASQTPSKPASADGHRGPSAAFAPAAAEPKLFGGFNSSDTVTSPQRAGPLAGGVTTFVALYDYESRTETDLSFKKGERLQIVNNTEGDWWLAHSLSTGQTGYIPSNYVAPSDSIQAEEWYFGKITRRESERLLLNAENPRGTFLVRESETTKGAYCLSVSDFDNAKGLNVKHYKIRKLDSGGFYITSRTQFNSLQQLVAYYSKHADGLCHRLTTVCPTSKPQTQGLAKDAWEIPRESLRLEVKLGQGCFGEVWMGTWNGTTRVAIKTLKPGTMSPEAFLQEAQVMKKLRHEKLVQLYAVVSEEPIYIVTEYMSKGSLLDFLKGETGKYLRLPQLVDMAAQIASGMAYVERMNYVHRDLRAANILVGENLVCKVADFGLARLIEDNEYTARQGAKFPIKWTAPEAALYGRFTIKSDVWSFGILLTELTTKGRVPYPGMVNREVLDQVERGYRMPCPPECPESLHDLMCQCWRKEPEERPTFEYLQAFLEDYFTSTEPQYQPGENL
Sequence of GSK-3β (P49841 whole entry, species assumed): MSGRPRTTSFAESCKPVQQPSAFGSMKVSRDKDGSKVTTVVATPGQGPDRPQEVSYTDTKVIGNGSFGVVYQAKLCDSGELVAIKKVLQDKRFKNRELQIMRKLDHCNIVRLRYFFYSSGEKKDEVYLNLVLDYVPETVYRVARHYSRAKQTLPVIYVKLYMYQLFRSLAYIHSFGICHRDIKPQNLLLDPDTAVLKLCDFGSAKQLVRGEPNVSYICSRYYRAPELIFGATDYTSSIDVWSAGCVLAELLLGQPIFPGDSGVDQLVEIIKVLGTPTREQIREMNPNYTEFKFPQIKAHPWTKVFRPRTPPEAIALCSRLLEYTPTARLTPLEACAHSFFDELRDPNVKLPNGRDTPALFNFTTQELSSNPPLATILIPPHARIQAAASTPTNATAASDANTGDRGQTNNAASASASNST

| IC50 [1] [nM] | C3.9 score [2] | C3.10 score [4] | C3.4 score [5] | C1 Score β [1] | SMILES | C2 Score [3] |
| --- | --- | --- | --- | --- | --- | --- |
| < 10 | – | – | 4 (Score 4 = >80% inhibition) | – | CCN1CCCc2cc(ccn2)-c2ncnc(n2)Nc2cccc(c2)CCNC(=O)C1 [Compound 30] | 4 (Score 4=>80% increase in D-glucose incorporation) |
| < 10 | – | – | 4 (Score 4 = >80% inhibition) | – | CN1CC(=O)NCCCc2cc(ccn2)-c2ncnc(n2)Nc2cc(Cl)cc(c2)C1 [Compound 33] | 4 (Score 4=>80% increase in D-glucose incorporation) |
| < 10 | – | – | 4 (Score 4 = >80% inhibition) | – | CCN1CC(=O)NCCCc2cc(ccn2)-c2ncnc(n2)Nc2cc(Cl)cc(c2)C1 [Compound 34] | 4 (Score 4=>80% increase in D-glucose incorporation) |
| 10 to 100 | 2 (Score 2 = 30-60% inhibition) | 2 (Score 2 = 30-60% inhibition) | 4 (Score 4 = >80% inhibition) | – | O=C1CCN2CCN(CC2)Cc2cccc(c2)Nc2ncnc(n2)-c2ccnc(c2)CCCN1 [Compound 35] | 4 (Score 4=>80% increase in D-glucose incorporation) |
| < 10 | 1 (Score 1 = 10-30% inhibition) | 1 (Score 1 = 10-30% inhibition) | 4 (Score 4 = >80% inhibition) | – | O=C1CN2CCN(CC2)Cc2cccc(c2)Nc2ncnc(n2)-c2ccnc(c2)CCCN1 [Compound 36] | 4 (Score 4=>80% increase in D-glucose incorporation) |
| < 10 | – | – | 4 (Score 4 = >80% inhibition) | – | O=C1CN2CCN(CC2)Cc2cc(Cl)cc(c2)Nc2ncnc(n2)-c2ccnc(c2)CCCN1 [Compound 41] | 4 (Score 4=>80% increase in D-glucose incorporation) |
| – | – | – | 4 (Score 4 = >80% inhibition) | – | O=C1NCCCc2cccc(c2)-c2ncnc(n2)Nc2cccc(c2)CN[C@H]1CO [Compound 46] | 4 (Score 4=>80% increase in D-glucose incorporation) |
| – | 1 (Score 1 = 10-30% inhibition) | 2 (Score 2 = 30-60% inhibition) | 4 (Score 4 = >80% inhibition) | – | CCN1CC(=O)NCCCc2cccc(c2)-c2ncnc(n2)Nc2cccc(c2)C1 [Compound 54] | 4 (Score 4=>80% increase in D-glucose incorporation) |
| – | – | 1 (Score 1 = 10-30% inhibition) | 4 (Score 4 = >80% inhibition) | – | O=C1CN2CCN(CC2)Cc2cccc(c2)Nc2ncnc(n2)-c2ccc(F)c(c2)CCCN1 [Compound 66] | 4 (Score 4=>80% increase in D-glucose incorporation) |
| – | 4 (Score 4 = >80% inhibition) | 4 (Score 4 = >80% inhibition) | 4 (Score 4 = >80% inhibition) | – | O=C1NCCCc2cc(ccc2F)-c2ncnc(n2)Nc2cc(Cl)cc(c2)CN[C@H]1CO [Compound 71] | 4 (Score 4=>80% increase in D-glucose incorporation) |
| – | 1 (Score 1 = 10-30% inhibition) | 1 (Score 1 = 10-30% inhibition) | 4 (Score 4 = >80% inhibition) | – | O=C1NCCCc2cncc(c2)-c2ncnc(n2)Nc2cccc(c2)CN[C@H]1CO [Compound 81] | 4 (Score 4=>80% increase in D-glucose incorporation) |

Continued, compound first:

| SMILES | IC50 [1] [nM] | C3.9 score [2] | C3.10 score [4] | C3.4 score [5] | C1 Score β [1] | C2 Score [3] |
| --- | --- | --- | --- | --- | --- | --- |
| CN1CC(=O)NCC#Cc2cc(ccn2)-c2ncnc(n2)Nc2cccc(c2)C1 [Compound 1] | < 10 | 3 (Score 3 = 60-80% inhibition) | 3 (Score 3 = 60-80% inhibition) | 4 (Score 4 = >80% inhibition) | – | 3 (Score 3=60-80% increase) |
| CN1CC(=O)NC/C(Cl)=C/c2cc(ccn2)-c2ncnc(n2)Nc2cccc(c2)C1 [Compound 2] | < 10 | 4 (Score 4 = >80% inhibition) | 4 (Score 4 = >80% inhibition) | 4 (Score 4 = >80% inhibition) | – | 4 (Score 4=>80% increase in D-glucose incorporation) |
| CN1CCC(=O)NCCCc2cc(ccn2)-c2ncnc(n2)Nc2cccc(c2)C1 [Compound 3] | 10 to 100 | 2 (Score 2 = 30-60% inhibition) | 2 (Score 2 = 30-60% inhibition) | 4 (Score 4 = >80% inhibition) | – | – |
| CN1CCCc2cc(ccn2)-c2ncnc(n2)Nc2cccc(c2)CNC(=O)C1 [Compound 7] | < 10 | 2 (Score 2 = 30-60% inhibition) | 2 (Score 2 = 30-60% inhibition) | 4 (Score 4 = >80% inhibition) | – | 3 (Score 3=60-80% increase) |
| CN1CC(=O)NCCCc2cc(ccn2)-c2ncnc(n2)Nc2cccc(c2)C1 [Compound 8] | – | – | – | 4 (Score 4 = >80% inhibition) | 4 (Score 4=pIC50 value>8) | 4 (Score 4=>80% increase in D-glucose incorporation) |
| O=C1CN2CCN(CC2)Cc2cccc(c2)Nc2ncnc(n2)-c2ccnc(c2)CCCN1 [Compound 9] | – | – | – | 4 (Score 4 = >80% inhibition) | 4 (Score 4=pIC50 value>8) | 4 (Score 4=>80% increase in D-glucose incorporation) |
| CN1CC(=O)NCCCc2cc(ccn2)-c2ncnc(n2)Nc2cccc(c2)C1 [Compound 10] | < 10 | 2 (Score 2 = 30-60% inhibition) | 2 (Score 2 = 30-60% inhibition) | 4 (Score 4 = >80% inhibition) | – | 4 (Score 4=>80% increase in D-glucose incorporation) |
| CN1CCN(CCN2CCC(=O)NCCCc3cc(ccn3)-c3ncnc(n3)Nc3cccc(c3)C2)CC1 [Compound 11] | 100 to 1000 | 1 (Score 1 = 10-30% inhibition) | 1 (Score 1 = 10-30% inhibition) | 1 (Score 1 = 10-30% inhibition) | – | – |
| O=C1NCCCc2cc(ccn2)-c2ncnc(n2)Nc2cccc(c2)CN2CCCC12 (centres unmarked) [Compound 12] | 100 to 1000 | 2 (Score 2 = 30-60% inhibition) | 2 (Score 2 = 30-60% inhibition) | 4 (Score 4 = >80% inhibition) | – | – |
| CN1CCCC(=O)NCCCc2cc(ccn2)-c2ncnc(n2)Nc2cccc(c2)C1 [Compound 13] | 10 to 100 | 2 (Score 2 = 30-60% inhibition) | 1 (Score 1 = 10-30% inhibition) | 2 (Score 2 = 30-60% inhibition) | – | – |
| O=C1NCCCc2cc(ccn2)-c2ncnc(n2)Nc2cccc(c2)CN2C[C@H](O)C[C@@H]12 [Compound 14] | 10 to 100 | 2 (Score 2 = 30-60% inhibition) | 1 (Score 1 = 10-30% inhibition) | 1 (Score 1 = 10-30% inhibition) | – | – |
| O=C1NCCCc2cc(ccn2)-c2ncnc(n2)Nc2cccc(c2)CN2CCCC1C2 (centres unmarked) [Compound 15] | 10 to 100 | 1 (Score 1 = 10-30% inhibition) | 1 (Score 1 = 10-30% inhibition) | 2 (Score 2 = 30-60% inhibition) | – | – |
